In article PMC3820677 (PLoS ONE, 2013):

Target: mKv1.3 (Mus musculus, UniProt P16390)
Test: cell-based

mKv1.3, sequence (P16390 whole entry): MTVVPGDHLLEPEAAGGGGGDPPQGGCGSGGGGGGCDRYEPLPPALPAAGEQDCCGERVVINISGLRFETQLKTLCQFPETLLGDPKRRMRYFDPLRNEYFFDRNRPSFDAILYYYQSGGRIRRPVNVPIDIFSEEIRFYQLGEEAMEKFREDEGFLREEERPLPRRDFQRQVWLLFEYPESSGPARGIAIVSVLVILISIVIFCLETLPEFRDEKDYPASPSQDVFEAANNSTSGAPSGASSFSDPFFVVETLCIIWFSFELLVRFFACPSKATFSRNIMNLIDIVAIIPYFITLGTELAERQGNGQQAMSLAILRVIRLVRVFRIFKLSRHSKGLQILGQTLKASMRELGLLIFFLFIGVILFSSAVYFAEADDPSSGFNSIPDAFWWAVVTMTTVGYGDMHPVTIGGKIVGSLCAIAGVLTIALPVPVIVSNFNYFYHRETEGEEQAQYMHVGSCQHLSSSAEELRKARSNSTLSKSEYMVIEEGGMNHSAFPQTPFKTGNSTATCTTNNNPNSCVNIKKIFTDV

SMILES: CC[C@H](C)[C@@H]1NC(=O)[C@@H](NC(=O)[C@H](CO)NC(=O)[C@@H](N)CCCNC(=N)N)CSSC[C@@H](C(=O)O)NC(=O)[C@H]([C@@H](C)O)NC(=O)CNC(=O)[C@@H]2CSSC[C@@H]3NC(=O)[C@H](CCC(N)=O)NC(=O)[C@H](Cc4ccccc4)NC(=O)[C@H](C)NC(=O)[C@H]([C@@H](C)O)NC(=O)[C@H](CSSC[C@H](NC(=O)[C@H](Cc4ccccc4)NC(=O)[C@H](CO)NC(=O)[C@H](CC(C)C)NC(=O)[C@H](CCCNC(=N)N)NC(=O)[C@H](Cc4ccc(O)cc4)NC(=O)[C@H](CCCCN)NC(=O)[C@H](CCSC)NC(=O)[C@H](CO)NC(=O)[C@H](Cc4cnc[nH]4)NC(=O)[C@H](CCCCN)NC3=O)C(=O)N[C@@H](CCCNC(=N)N)C(=O)N[C@@H](CCCCN)C(=O)N[C@@H]([C@@H](C)O)C(=O)N2)NC(=O)[C@H](CCCNC(=N)N)NC(=O)[C@H](CO)NC(=O)[C@H](CCCCN)NC(=O)[C@@H]2CCCN2C(=O)[C@H]([C@@H](C)CC)NC(=O)[C@H]([C@@H](C)O)NC(=O)[C@H](CC(=O)O)NC1=O [ShK]
- IC50: 9.3 ± 2 pM
